# Data reported in US20180291353A1, “MONOFUNCTIONAL ALDEHYDE AND ALCOHOL DEHYDROGENASES FOR PRODUCTION OF FUELS AND COMMODITY CHEMICALS” (The Regents of the University of California, priority 2015, published 2018).
# Assays:
# [1] = molecular target: T1, ALDH16 (monofunctional aldehyde dehydrogenase, GI 150018649, SEQ ID NO: 16; Strep-ALDH16) (Clostridium diolis, UniProt A0AAV3W6M8); test: In vitro kinetics of aldehyde/alcohol dehydrogenases, oxidation of NADH at 340 nm (purified Strep-ALDH16); type: biochemical
# T1 sequence (A0AAV3W6M8 1-468): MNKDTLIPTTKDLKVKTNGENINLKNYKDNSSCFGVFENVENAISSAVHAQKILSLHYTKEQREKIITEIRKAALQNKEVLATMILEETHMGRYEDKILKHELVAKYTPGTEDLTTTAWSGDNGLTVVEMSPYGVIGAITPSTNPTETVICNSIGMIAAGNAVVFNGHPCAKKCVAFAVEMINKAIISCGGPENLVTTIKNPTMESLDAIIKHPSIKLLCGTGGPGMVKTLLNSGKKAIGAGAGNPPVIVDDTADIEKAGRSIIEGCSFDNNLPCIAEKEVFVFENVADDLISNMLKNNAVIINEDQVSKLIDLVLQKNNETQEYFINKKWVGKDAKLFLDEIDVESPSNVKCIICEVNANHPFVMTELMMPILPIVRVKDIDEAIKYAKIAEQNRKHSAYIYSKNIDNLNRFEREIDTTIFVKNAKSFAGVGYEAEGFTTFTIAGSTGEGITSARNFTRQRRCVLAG
# Protocol: Activity of ALDH proteins was measured by monitoring the oxidation of NADH at 340 nm at 30° C. The assay mixture (400 μL) contained 100 μM NADH in 100 mM Tris 1 mM DTT pH 7.5. The reaction was initiated by the addition of substrate. Kinetic parameters (kcat, KM) were determined by fitting the data using Microcal Origin to the equation: vo=vmax [S]/(KM+[S]), where v is the initial rate and [S] is the substrate concentration. Data are reported as mean±s.e. (n=3) unless otherwise noted with standard error derived from the nonlinear curve fitting. Error bars on graphs represent mean±s.d. (n=3). Error in kcat/KM is calculated by propagation of error from the individual kinetic parameters.
# To further explore the potential for expressing monofunctional aldehyde and alcohol dehydrogenases in host cells for the production of alcohols, various aldehyde and alcohol dehydrogenases were purified and isolated to investigate their in vitro kinetic behavior with various C4 and C2 substrates. In particular, the monofunctional aldehyde dehydrogenase identified in FIG. 3 above (GI 150018649, also referred to as ALDH16) was purified (FIG. 4A and FIG. 4B) and the in vitro kinetic behavior of a purified Strep-ALDH16 protein with various C4 and C2 substrates was tested.
# [2] = molecular target: T2, AdhE2-ALDH (aldehyde dehydrogenase domain of bifunctional AdhE2, wild type, GI 499193180, SEQ ID NO: 41) (Clostridium acetobutylicum, UniProt Q9ANR5); test: In vitro kinetics of aldehyde/alcohol dehydrogenases, oxidation of NADH at 340 nm (aldehyde dehydrogenase domain of AdhE2)
# T2 sequence (Q9ANR5 1-858): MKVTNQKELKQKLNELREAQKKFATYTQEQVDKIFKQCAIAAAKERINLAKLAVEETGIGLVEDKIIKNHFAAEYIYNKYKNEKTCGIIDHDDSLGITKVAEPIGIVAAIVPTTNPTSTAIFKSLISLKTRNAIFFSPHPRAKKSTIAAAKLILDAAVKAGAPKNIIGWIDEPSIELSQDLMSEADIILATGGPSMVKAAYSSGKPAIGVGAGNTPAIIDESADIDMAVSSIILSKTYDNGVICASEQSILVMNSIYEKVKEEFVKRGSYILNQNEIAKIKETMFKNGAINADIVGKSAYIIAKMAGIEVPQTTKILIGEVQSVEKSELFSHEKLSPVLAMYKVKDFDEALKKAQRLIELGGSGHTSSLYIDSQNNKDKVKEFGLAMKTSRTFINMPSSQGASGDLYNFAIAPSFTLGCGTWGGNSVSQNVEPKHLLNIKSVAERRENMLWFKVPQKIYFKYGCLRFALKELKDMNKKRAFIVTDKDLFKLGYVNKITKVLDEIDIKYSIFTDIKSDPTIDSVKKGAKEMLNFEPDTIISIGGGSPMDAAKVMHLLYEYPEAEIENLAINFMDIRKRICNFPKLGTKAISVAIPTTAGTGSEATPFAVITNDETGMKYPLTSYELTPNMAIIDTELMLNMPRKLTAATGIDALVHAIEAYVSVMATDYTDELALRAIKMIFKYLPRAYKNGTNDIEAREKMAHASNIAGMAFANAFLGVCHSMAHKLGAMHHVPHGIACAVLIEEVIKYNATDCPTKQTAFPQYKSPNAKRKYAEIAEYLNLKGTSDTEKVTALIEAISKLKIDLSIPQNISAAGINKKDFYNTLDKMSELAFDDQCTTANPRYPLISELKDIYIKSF
# [3] = 100 μM NADH, 100 mM Tris, 1 mM DTT, pH 7.5, 30° C., mean±s.e. (n=3)
smiles,measurement,setting,value
CC(=O)SCCNC(=O)CCNC(=O)[C@H](O)C(C)(C)COP(=O)(O)OP(=O)(O)OC[C@H]1O[C@@H](n2cnc3c(N)ncnc32)[C@H](O)[C@@H]1OP(=O)(O)O [acetyl-CoA],higher KM for acetyl-CoA,[1]; compared with ALDH domain of AdhE2,5 fold
CCCC(=O)SCCNC(=O)CCNC(=O)[C@H](O)C(C)(C)COP(=O)(O)OP(=O)(O)OC[C@H]1O[C@@H](n2cnc3c(N)ncnc32)[C@H](O)[C@@H]1OP(=O)(O)O [butyryl-CoA],kcat,[1]; [3],0.11 ± 0.01 s⁻¹
same,preference (specificity) for butyryl-CoA over acetyl-CoA,[1]; from Table 4,73 fold
same,kcat,[2]; [3],1.2 ± 0.1 s⁻¹
same,preference for butyryl-CoA over acetyl-CoA,[2]; from Table 4,8.5 fold
